Among the data in US20110105509A1 (Wyeth, LLC, priority 2009, published 2011) are IC50 values, retold here.

The structures appear in SMILES notation.

The experiment has as its target T1, CRTH2 (Homo sapiens, UniProt Q9Y5Y4).
T1 construct: expressed in transfected cells; host or cells: CHO cells
T1 sequence (Q9Y5Y4 1-395): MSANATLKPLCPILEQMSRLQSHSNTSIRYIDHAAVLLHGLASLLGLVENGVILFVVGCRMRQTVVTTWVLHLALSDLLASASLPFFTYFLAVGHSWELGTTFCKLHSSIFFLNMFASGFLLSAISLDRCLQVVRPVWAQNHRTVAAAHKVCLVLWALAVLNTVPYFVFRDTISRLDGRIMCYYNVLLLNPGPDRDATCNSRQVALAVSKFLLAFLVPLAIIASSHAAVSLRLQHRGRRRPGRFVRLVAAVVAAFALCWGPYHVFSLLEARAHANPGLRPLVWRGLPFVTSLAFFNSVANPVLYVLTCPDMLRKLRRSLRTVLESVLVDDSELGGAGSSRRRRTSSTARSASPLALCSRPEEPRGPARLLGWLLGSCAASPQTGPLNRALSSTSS
Kind of experiment: FRET based competitive immunoassay (cAMP) in CRTH2 expressing CHO cells. The format is cell-based. Particulars: CRTH2 expressing CHO cells incubated with forskolin and PGD2; Eu3+ cryptate-labeled anti-cAMP and d2-labeled cAMP. Here is the method:
FRET Assay: To evaluate potency compounds were tested in a FRET based competitive immunoassay in which CRTH2 expressing CHO cells were incubated in the presence of forskolin and PGD2 along with Eu3+ cryptate-labeled anti-cAMP and d2-labeled cAMP.
In turn, `Cc1c(-c2ccc(=O)n(Cc3ccc(Cl)cc3)n2)c2cc(F)ccc2n1CC(=O)O` [Example 13, 2-(3-(1-(4-Chlorobenzyl)-6-oxo-1,6-dihydropyridazin-3-yl)-5-fluoro-2-methyl-1H-indol-1-yl)acetic acid] yielded an IC50 of 5 nM.

`Cc1c(-c2ccc(=O)n(Cc3cccc(F)c3F)c2)c2cc(F)ccc2n1[C@@H](C)C(=O)O` [Example 306a, (S)-2-(3-(1-(2,3-difluorobenzyl)-6-oxo-1,6-dihydropyridin-3-yl)-5-fluoro-2-methyl-1H-indol-1-yl)propanoic acid] gave an IC50 of over 2000 nM.

For `Cc1c(-c2ccc(=O)n(Cc3ccncc3)c2)c2cc(F)ccc2n1CC(=O)O` [Example 308, 2-(5-fluoro-2-methyl-3-(6-oxo-1-(pyridin-4-ylmethyl)-1,6-dihydropyridin-3-yl)-1H-indol-1-yl)acetic acid], the IC50 worked out at 35 nM.

Regarding `CCC(O)(CC)Cn1nc(-c2c(C)n(CC(=O)O)c3ccc(F)cc23)c2ccccc2c1=O` [Example 128, 2-(3-(3-(2-ethyl-2-hydroxybutyl)-4-oxo-3,4-dihydrophthalazin-1-yl)-5-fluoro-2-methyl-1H-indol-1-yl)acetic acid], the IC50 turned out to be 6 nM.

`Cc1c(-c2ccc(=O)n(C(C)C)n2)c2ccccc2n1CC(=O)O` [Example 181, 2-(3-(1-isopropyl-6-oxo-1,6-dihydropyridazin-3-yl)-2-methyl-1H-indol-1-yl)-acetic acid]: the concentration for half-maximal inhibition (IC50) is 920 nM.

Compound `Cc1c(Cc2ccc(=O)n(Cc3cc(F)c(F)cc3F)c2)c2cc(F)ccc2n1CC(=O)O` [Example 23, 2-(5-Fluoro-2-methyl-3-((6-oxo-1-(2,4,5-trifluorobenzyl)-1,6-dihydro-pyridin-3-yl)methyl)-1H-indol-1-yl)acetic acid] had an IC50 of 17 nM.

Consider `Cc1c(-c2ccc(=O)n(Cc3ccccc3)n2)c2cc(Br)ccc2n1CC(=O)O` [Example 219, 2-(3-(1-benzyl-6-oxo-1,6-dihydropyridazin-3-yl)-5-bromo-2-methyl-1H-indol-1-yl)-acetic acid], for which the IC50 is 30 nM.

`Cc1c(Cc2ccc(=O)n(Cc3ccccc3)c2)c2cc(Cl)ccc2n1CC(=O)O` [Example 347, {3-[(1-benzyl-6-oxo-1,6-dihydropyridin-3-yl)methyl]-5-chloro-2-methyl-1H-indol-1-yl}acetic acid] returned an IC50 of 11 nM.

`CCC(=O)Cn1nc(-c2c(C)n(CC(=O)O)c3ccc(F)cc23)c2ccccc2c1=O` [Example 133, 2-(5-fluoro-2-methyl-3-(4-oxo-3-(2-oxobutyl)-3,4-dihydrophthalazin-1-yl)-1H-indol-1-yl)acetic acid] registered an IC50 of 8 nM.

For the compound `Cc1c(-c2ccc(=O)n(Cc3ccccc3F)c2)c2cc(Cl)ccc2n1CC(=O)O` [Example 290, 2-(5-chloro-3-(1-(2-fluorobenzyl)-6-oxo-1,6-dihydropyridin-3-yl)-2-methyl-1H-indol-1-yl)acetic acid], the IC50 turned out to be 7 nM.

For the compound `Cc1c(-c2ccc(=O)n(CC(F)(F)F)c2)c2ccccc2n1CC(=O)O` [Example 279, 2-(2-methyl-3-(6-oxo-1-(2,2,2-trifluoroethyl)-1,6-dihydropyridin-3-yl)-1H-indol-1-yl)acetic acid], the IC50 came out at 715 nM.

For the compound `Cc1c(-c2nn(Cc3cccc(C(F)(F)F)c3)c(=O)c3ccccc23)c2cc(Cl)ccc2n1CC(=O)O` [Example 200, 2-(5-Chloro-2-methyl-3-(4-oxo-3-(3-(trifluoromethyl)benzyl)-3,4-dihydro-phthalazin-1-yl)-1H-indol-1-yl)acetic acid], the IC50 amounted to 45 nM.

In turn, `Cc1c(-c2ccc(=O)n(Cc3c(F)cccc3F)c2)c2ccccc2n1CC(=O)O` [Example 285, 2-(3-(1-(2,6-difluorobenzyl)-6-oxo-1,6-dihydropyridin-3-yl)-2-methyl-1H-indol-1-yl)acetic acid] returned an IC50 of 23 nM.

The compound `Cc1c(-c2nn(Cc3ccc4ccccc4n3)c(=O)c3ccccc23)c2cc(F)ccc2n1CC(=O)O` [Example 118, 2-(5-fluoro-2-methyl-3-(4-oxo-3-(quinolin-2-ylmethyl)-3,4-dihydro-phthalazin-1-yl)-1H-indol-1-yl)acetic acid] gave an IC50 of 9 nM.

For `Cc1c(CC2=NN(Cc3ccc(F)cc3F)C(=O)CC2)c2cc(F)ccc2n1CC(=O)O` [Example 56, 2-(3-((1-(2,4-Difluorobenzyl)-6-oxo-1,4,5,6-tetrahydropyridazin-3-yl)methyl)-5-fluoro-2-methyl-1H-indol-1-yl)acetic acid], the IC50 was found to be 5 nM.

On to `Cc1c(-c2ccc(=O)n(Cc3ccc(F)cc3)c2)c2ccccc2n1CC(=O)O` [Example 283, 2-(3-(1-(4-fluorobenzyl)-6-oxo-1,6-dihydropyridin-3-yl)-2-methyl-1H-indol-1-yl)acetic acid], for which the IC50 came out at 16 nM.

Consider `Cc1c(Cc2ccc(=O)n(Cc3ccc(C(F)(F)F)cc3)n2)c2cc(F)ccc2n1CC(=O)O` [Example 82, 2-(5-fluoro-2-methyl-3-((6-oxo-1-(4-(trifluoromethyl)benzyl)-1,6-dihydro-pyridazin-3-yl)methyl)-1H-indol-1-yl)acetic acid], for which the IC50 amounted to 16 nM.

Compound `Cc1c(-c2ccc(=O)n(Cc3ccc(F)cc3C(F)(F)F)n2)c2cc(Cl)ccc2n1CC(=O)O` [Example 142, 2-(5-chloro-3-(1-(4-fluoro-2-(trifluoromethyl)benzyl)-6-oxo-1,6-dihydro-pyridazin-3-yl)-2-methyl-1H-indol-1-yl)acetic acid] came in with a concentration for half-maximal inhibition (IC50) of 19 nM.

In turn, `COC(=O)Cn1c(C)c(-c2ccc(=O)n(Cc3ccc(F)cc3F)n2)c2ccccc21` [Example 186, methyl 2-(3-(1-(2,4-difluorobenzyl)-6-oxo-1,6-dihydropyridazin-3-yl)-2-methyl-1H-indol-1-yl)acetate] returned an IC50 of 150 nM.

`Cc1c(Cc2ccc(=O)n(Cc3cc(F)c(F)cc3F)c2)c2ccccc2n1CC(=O)O` [Example 24] yielded an IC50 of 28 nM.

Compound `Cc1c(-c2ccc(=O)n(Cc3ccccc3)n2)c2cc(F)cc(S(C)(=O)=O)c2n1CC(=O)O` [Example 236, 2-(3-(1-benzyl-6-oxo-1,6-dihydropyridazin-3-yl)-5-fluoro-2-methyl-7-(methyl-sulfonyl)-1H-indol-1-yl)acetic acid] gave an IC50 of over 1000 nM.

Compound `Cc1c(-c2nn(Cc3ccc(F)cc3F)c(=O)c3ccccc23)c2cc(Cl)ccc2n1CC(=O)O` [Example 61, 2-(5-chloro-3-(3-(2,4-difluorobenzyl)-4-oxo-3,4-dihydrophthalazin-1-yl)-2-methyl-1H-indol-1-yl)acetic acid] returned an IC50 of 11 nM.

Take `Cc1c(-c2cn(Cc3ccc(F)cc3F)c(=O)c3c2CCCC3)c2cc(F)ccc2n1CC(=O)O` [Example 94, 2-(3-(2-(2,4-difluorobenzyl)-1-oxo-1,2,5,6,7,8-hexahydroisoquinolin-4-yl)-5-fluoro-2-methyl-1H-indol-1-yl)acetic acid]: the IC50 was 119 nM.

For `Cc1c(-c2nn(C3CCCC3)c(=O)c3ccccc23)c2ccccc2n1CC(=O)O` [Example 179, 2-(3-(3-cyclopentyl-4-oxo-3,4-dihydrophthalazin-1-yl)-2-methyl-1H-indol-1-yl)-acetic acid], the IC50 is over 1000 nM.

`COc1ccc2c(c1)c(-c1ccc(=O)n(CC(F)(F)F)c1)c(C)n2CC(=O)O` [Example 298, 2-(5-methoxy-2-methyl-3-(6-oxo-1-(2,2,2-trifluoroethyl)-1,6-dihydropyridin-3-yl)-1H-indol-1-yl)acetic acid] yielded an IC50 of over 2000 nM.

Compound `Cc1c(-c2cn(Cc3ccccc3)c(=O)c3ccccc23)c2cc(F)ccc2n1CC(=O)NS(C)(=O)=O` [Example 323, 2-(3-(2-benzyl-1-oxo-1,2-dihydroisoquinolin-4-yl)-5-fluoro-2-methyl-1H-indol-1-yl)-N-(methylsulfonyl)acetamide] had an IC50 of 518 nM.

`Cc1c(-c2ccc(=O)n(Cc3ccccc3)n2)c2cc(F)cc(F)c2n1CC(=O)O` [Example 233, 2-(3-(1-benzyl-6-oxo-1,6-dihydropyridazin-3-yl)-5,7-difluoro-2-methyl-1H-indol-1-yl)acetic acid] registered an IC50 of 147 nM.

Compound `Cc1c(-c2ccc(=O)n(CCc3ccc(F)cc3)n2)c2ccccc2n1CC(=O)O` [Example 229, 2-(3-(1-(4-fluorophenethyl)-6-oxo-1,6-dihydropyridazin-3-yl)-2-methyl-1H-indol-1-yl)acetic acid] had an IC50 of 136 nM.

As for `Cc1c(-c2ccc(=O)n(C)n2)c2cc(Cl)ccc2n1CC(=O)O` [Example 149, 2-(5-chloro-2-methyl-3-(1-methyl-6-oxo-1,6-dihydropyridazin-3-yl)-1H-indol-1-yl)acetic acid], the IC50 was 2150 nM.

Turning to `Cc1c(-c2cn(CCC(C(F)(F)F)C(F)(F)F)c(=O)c3ccccc23)c2cc(F)ccc2n1CC(=O)O` [Example 96, 2-(5-fluoro-2-methyl-3-(1-oxo-2-(4,4,4-trifluoro-3-(trifluoromethyl)butyl)-1,2-dihydroisoquinolin-4-yl)-1H-indol-1-yl)acetic acid], the 50% inhibitory concentration (IC50) came to 296 nM.

In the case of `Cc1c(-c2nn(Cc3cccc(F)c3F)c(=O)c3ccccc23)c2cc(F)ccc2n1CC(=O)O` [Example 112, 2-(3-(3-(2,3-difluorobenzyl)-4-oxo-3,4-dihydrophthalazin-1-yl)-5-fluoro-2-methyl-1H-indol-1-yl)acetic acid], the IC50 is 19 nM.

Usually IC50 stands for the concentration at which inhibition is half-maximal. A lower IC50 goes with greater potency in that assay.
